Where two headings read alike, the source gives them in different places.
Columns and labels:
[1] = test system: CT-2A; assay: Potency (cell viability v. concentration) against GBM cell line CT-2A; format: cell-based
Description: (§1) The potencies of several therapies again GBM cells lines were measured.
(§2) FIG. 3 depicts a plot of cell viability v. concentration of each of the therapies listed in the foregoing table.

[2] = test system: GBM cells; assay: Calreticulin surface expression and HMGB1 excretion of GBM cells
[3] = test system: GL261; assay: Potency (cell viability v. concentration) against GBM cell line GL261; format: cell-based
Description: as §1, §2

[4] = test system: GBM spheroids; assay: Elimination of GBM spheroids in vitro; format: cell-based; details: compared with other tested chemotherapies
Excerpt: The other tested chemotherapies, however, may be used in the methods and compositions described herein.

[5] = In vitro drug release from hydrogels; format: physicochemical
Description: Doxorubin release profiles of the foregoing compositions were tested.
Also compared was the cumulative release percentage of doxil and doxorubicin.
The in vitro release of acriflavine also was tested. An injectable hydrogel formulation (75% oxidized dextran, 12.5% w/v; PAMAM dendrimer, 15% w/v, pH 9.2) was prepared with four different loading concentrations (0.625 mg, 1.25 mg, 2.5 mg, and 5 mg, each of which had been previously injected locally in the brain).

[6] = Mus musculus, GL261, read-out: IC50 in GL261

Row | Compound | IC50 ([1]; read-out: IC50 in CT-2A) | IC50 [3, 6] | other results
1 | COc1cccc2c1C(=O)c1c(O)c3c(c(O)c1C2=O)C[C@@](O)(C(=O)CO)C[C@@H]3O[C@H]1C[C@H](N)[C@H](O)[C@H](C)O1 [Doxorubicin] | 0.1 µM | 0.8 µM | IC50 ([1]; comparative testing doxil v. doxorubicin, FIG. 20A/20B, read-out: potency from cell viabilities, CT-2A (quantity not named)): 0.17 µM; surface expression of calreticulin ([2]; FIG. 42, FIG. 43): increase the surface expression of calreticulin; HMGB1 excretion ([2]; at relevant concentrations): did not impact HMGB1 excretion at relevant concentrations; IC50 ([3]; Mus musculus, GL261, comparative testing doxil v. doxorubicin, FIG. 20A/20B, read-out: potency from cell viabilities, GL261 (quantity not named)): 0.83 µM; elimination of GBM spheroids [4]: more potently eliminated GBM spheroids in vitro than other tested chemotherapies; cumulative percentage released, doxorubicin compared with doxil ([5]; over 200 hours, FIG. 11): greater cumulative percentage
2 | O=NN(CCCl)C(=O)NCCCl [Carmustine (BCNU), Carmustine] | 156 µM | 146 µM | –
3 | CCc1c2c(nc3ccc(OC(=O)N4CCC(N5CCCCC5)CC4)cc13)-c1cc3c(c(=O)n1C2)COC(=O)[C@]3(O)CC [Irinotecan] | 150 µM | 107 µM | –
4 | Cn1nnc2c(C(N)=O)ncn2c1=O [Temozolomide] | > 750 µM | > 750 µM | –
5 | Acriflavine | 7.3 µM | – | IC50 ([3]; read-out: IC50 in GL261): 2.7 µM; activity upon release ([5]; released from hydrogel): retained its activity upon release
